# Measured values reported in patent publication US20020111274A1, “1-alkyl-3-[1-(substituted phenyl) benzotriazol-6-yl] uracils” (BASF Aktiengesellschaft, priority 2000, published 2002).
# What was measured:
# Set-up in all cases: scale not given here
# ORYSAT Rice, Tebonnet [1] = assay: Postemergence herbicidal evaluation, ORYSAT; assay type: in vivo, Oryza sativa, (L.); settings: postemergence spray, rated about two-three weeks after treatment
# Summary of the method: (§1)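 Visual injury rating ~2–3 wk post-spray; replicate tests averaged. Two-week-old seedlings; foliar spray at 40 psi; 0.006–0.400 kg ai/ha in 80/20 acetone/water + 1.0% methylated seed oil.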
# [2] = test system: IPOHE Morningglory, Ivyleaf; assay: Preemergence herbicidal evaluation, IPOHE; assay type: in vivo, Ipomoea hederacea, (L.) Jacq.; settings: preemergence
# Summary of the method: (§2)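 Preemergence soil spray: aqueous acetone, ~0.013–0.800 kg/ha, applied right after sowing (seed/potting-soil mix over ~1 in soil). Greenhouse, routine watering. Scored 4–5 wk post-treatment on a rating scale.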
# [3] = test system: IPOHE Morningglory, Ivyleaf; assay: Postemergence herbicidal evaluation, IPOHE; assay type: in vivo, Ipomoea hederacea, (L.) Jacq.; settings: postemergence spray, rated about two-three weeks after treatment
# Summary of the method: as §1
# GLXMAW Soybean, Williams [4] = assay: Postemergence herbicidal evaluation, GLXMAW; assay type: in vivo, Glycine max, (L.) Merr. cv Williams; settings: postemergence spray, rated about two-three weeks after treatment
# Summary of the method: as §1
# ZEAMX Corn, Field [5] = assay: Preemergence herbicidal evaluation, ZEAMX; assay type: in vivo, Zea mays, L. (Sammel-Bezeichnung); settings: preemergence
# Summary of the method: as §2
# [6] = test system: TRZAWR Wheat, Winter, cv Riband; assay: Postemergence herbicidal evaluation, TRZAWR; assay type: in vivo, Triticum aestivum; settings: postemergence spray, rated about two-three weeks after treatment
# Summary of the method: as §1
# CASOB Sicklepod [7] = assay: Preemergence herbicidal evaluation, CASOB; assay type: in vivo, Cassia obtusifolia, L.; settings: preemergence
# Summary of the method: as §2
# ECHOG Barnyardgrass [8] = assay: Postemergence herbicidal evaluation, ECHOG; assay type: in vivo, Echinochloa crus-galli, (L.) Beau; settings: postemergence spray, rated about two-three weeks after treatment
# Summary of the method: as §1
# SETVI Foxtail, Green [9] = assay: Postemergence herbicidal evaluation, SETVI; assay type: in vivo, Setaria viridis, (L.) Beau; settings: postemergence spray, rated about two-three weeks after treatment
# Summary of the method: as §1
# ABUTH Velvetleaf [10] = assay: Postemergence herbicidal evaluation, ABUTH; assay type: in vivo, Abutilon theophrasti, Medic.; settings: postemergence spray, rated about two-three weeks after treatment
# Summary of the method: as §1
# GALAP Galium [11] = assay: Preemergence herbicidal evaluation, GALAP; assay type: in vivo, Galium aparine; settings: preemergence
# Summary of the method: as §2
# AMBEL Ragweed, Common [12] = assay: Postemergence herbicidal evaluation, AMBEL; assay type: in vivo, Ambrosia artemisifolia, L.; settings: postemergence spray, rated about two-three weeks after treatment
# Summary of the method: as §1
# AMBEL Ragweed, Common [13] = assay: Preemergence herbicidal evaluation, AMBEL; assay type: in vivo, Ambrosia artemisifolia, L.; settings: preemergence
# Summary of the method: as §2
# [14] = test system: CHEAL Lambsquarters, Common; assay: Postemergence herbicidal evaluation, CHEAL; assay type: in vivo, Chenopodium album, L.; settings: postemergence spray, rated about two-three weeks after treatment
# Summary of the method: as §1
# SETVI Foxtail, Green [15] = assay: Preemergence herbicidal evaluation, SETVI; assay type: in vivo, Setaria viridis, (L.) Beau; settings: preemergence
# Summary of the method: as §2
# GALAP Galium [16] = assay: Postemergence herbicidal evaluation, GALAP; assay type: in vivo, Galium aparine; settings: postemergence spray, rated about two-three weeks after treatment
# Summary of the method: as §1
# [17] = test system: CHEAL Lambsquarters, Common; assay: Preemergence herbicidal evaluation, CHEAL; assay type: in vivo, Chenopodium album, L.; settings: preemergence
# Summary of the method: as §2
# [18] = test system: TRZAWR Wheat, Winter, cv Riband; assay: Preemergence herbicidal evaluation, TRZAWR; assay type: in vivo, Triticum aestivum; settings: preemergence
# Summary of the method: as §2
# GLXMAW Soybean, Williams [19] = assay: Preemergence herbicidal evaluation, GLXMAW; assay type: in vivo, Glycine max, (L.) Merr. cv Williams; settings: preemergence
# Summary of the method: as §2
# ECHOG Barnyardgrass [20] = assay: Preemergence herbicidal evaluation, ECHOG; assay type: in vivo, Echinochloa crus-galli, (L.) Beau; settings: preemergence
# Summary of the method: as §2
# ORYSAT Rice, Tebonnet [21] = assay: Preemergence herbicidal evaluation, ORYSAT; assay type: in vivo, Oryza sativa, (L.); settings: preemergence
# Summary of the method: as §2
# ZEAMX Corn, Field [22] = assay: Postemergence herbicidal evaluation, ZEAMX; assay type: in vivo, Zea mays, L. (Sammel-Bezeichnung); settings: postemergence spray, rated about two-three weeks after treatment
# Summary of the method: as §1
# ABUTH Velvetleaf [23] = assay: Preemergence herbicidal evaluation, ABUTH; assay type: in vivo, Abutilon theophrasti, Medic.; settings: preemergence
# Summary of the method: as §2
# CASOB Sicklepod [24] = assay: Postemergence herbicidal evaluation, CASOB; assay type: in vivo, Cassia obtusifolia, L.; settings: postemergence spray, rated about two-three weeks after treatment
# Summary of the method: as §1
smiles,measurement,setting,value
COC(=O)COc1ccc(C)c(-n2nnc3cc(F)c(-n4c(=O)cc(C(F)(F)F)n(C)c4=O)cc32)c1 [Example 38],Postemergence herbicidal rating ORYSAT,"ORYSAT Rice, Tebonnet [1]; 0.008 kg/ha",1.0
same,Postemergence herbicidal rating ORYSAT,"ORYSAT Rice, Tebonnet [1]; 0.016 kg/ha",2.0
same,Postemergence herbicidal rating ORYSAT,"ORYSAT Rice, Tebonnet [1]; 0.032 kg/ha",3.5
same,Postemergence herbicidal rating ORYSAT,"ORYSAT Rice, Tebonnet [1]; 0.062 kg/ha",6.0
same,IPOHE herbicidal rating,[2]; rate 0.016 kg/ha,0.0
same,IPOHE herbicidal rating,[2]; rate 0.032 kg/ha,0.0
same,IPOHE herbicidal rating,[2]; rate 0.062 kg/ha,0.0
same,Postemergence herbicidal rating IPOHE,[3]; 0.008 kg/ha,5.0
same,Postemergence herbicidal rating IPOHE,[3]; 0.016 kg/ha,5.0
same,Postemergence herbicidal rating IPOHE,[3]; 0.032 kg/ha,9.0
same,Postemergence herbicidal rating IPOHE,[3]; 0.062 kg/ha,9.0
same,Postemergence herbicidal rating GLXMAW,"GLXMAW Soybean, Williams [4]; 0.008 kg/ha",5.5
same,Postemergence herbicidal rating GLXMAW,"GLXMAW Soybean, Williams [4]; 0.016 kg/ha",5.5
same,Postemergence herbicidal rating GLXMAW,"GLXMAW Soybean, Williams [4]; 0.032 kg/ha",6.0
same,Postemergence herbicidal rating GLXMAW,"GLXMAW Soybean, Williams [4]; 0.062 kg/ha",7.5
same,ZEAMX herbicidal rating,"ZEAMX Corn, Field [5]; rate 0.016 kg/ha",0.0
same,ZEAMX herbicidal rating,"ZEAMX Corn, Field [5]; rate 0.032 kg/ha",0.0
same,ZEAMX herbicidal rating,"ZEAMX Corn, Field [5]; rate 0.062 kg/ha",0.0
same,ZEAMX herbicidal rating,"ZEAMX Corn, Field [5]; rate 0.125 kg/ha",0.0
same,Postemergence herbicidal rating TRZAWR,[6]; 0.008 kg/ha,3.5
same,Postemergence herbicidal rating TRZAWR,[6]; 0.016 kg/ha,4.5
same,Postemergence herbicidal rating TRZAWR,[6]; 0.032 kg/ha,6.0
same,Postemergence herbicidal rating TRZAWR,[6]; 0.062 kg/ha,8.0
same,CASOB herbicidal rating,CASOB Sicklepod [7]; rate 0.016 kg/ha,0.0
same,CASOB herbicidal rating,CASOB Sicklepod [7]; rate 0.032 kg/ha,0.0
same,CASOB herbicidal rating,CASOB Sicklepod [7]; rate 0.062 kg/ha,0.0
same,CASOB herbicidal rating,CASOB Sicklepod [7]; rate 0.125 kg/ha,2.0
same,Postemergence herbicidal rating ECHCG,ECHOG Barnyardgrass [8]; 0.008 kg/ha,0.0
same,Postemergence herbicidal rating ECHCG,ECHOG Barnyardgrass [8]; 0.016 kg/ha,0.0
same,Postemergence herbicidal rating ECHCG,ECHOG Barnyardgrass [8]; 0.032 kg/ha,3.0
same,Postemergence herbicidal rating ECHCG,ECHOG Barnyardgrass [8]; 0.062 kg/ha,3.0
same,Postemergence herbicidal rating SETVI,"SETVI Foxtail, Green [9]; 0.008 kg/ha",0.0
same,Postemergence herbicidal rating SETVI,"SETVI Foxtail, Green [9]; 0.016 kg/ha",0.0
same,Postemergence herbicidal rating SETVI,"SETVI Foxtail, Green [9]; 0.032 kg/ha",7.0
same,Postemergence herbicidal rating SETVI,"SETVI Foxtail, Green [9]; 0.062 kg/ha",9.0
same,Postemergence herbicidal rating ABUTH,ABUTH Velvetleaf [10]; 0.008 kg/ha,3.0
same,Postemergence herbicidal rating ABUTH,ABUTH Velvetleaf [10]; 0.016 kg/ha,8.0
same,Postemergence herbicidal rating ABUTH,ABUTH Velvetleaf [10]; 0.032 kg/ha,9.0
same,Postemergence herbicidal rating ABUTH,ABUTH Velvetleaf [10]; 0.062 kg/ha,9.0
same,GALAP herbicidal rating,GALAP Galium [11]; rate 0.016 kg/ha,0.0
same,GALAP herbicidal rating,GALAP Galium [11]; rate 0.032 kg/ha,0.0
same,GALAP herbicidal rating,GALAP Galium [11]; rate 0.062 kg/ha,0.0
same,GALAP herbicidal rating,GALAP Galium [11]; rate 0.125 kg/ha,0.0
same,Postemergence herbicidal rating AMBEL,"AMBEL Ragweed, Common [12]; 0.008 kg/ha",2.0
same,Postemergence herbicidal rating AMBEL,"AMBEL Ragweed, Common [12]; 0.016 kg/ha",7.0
same,Postemergence herbicidal rating AMBEL,"AMBEL Ragweed, Common [12]; 0.032 kg/ha",7.0
same,Postemergence herbicidal rating AMBEL,"AMBEL Ragweed, Common [12]; 0.062 kg/ha",9.0
same,AMBEL herbicidal rating,"AMBEL Ragweed, Common [13]; rate 0.016 kg/ha",0.0
same,AMBEL herbicidal rating,"AMBEL Ragweed, Common [13]; rate 0.032 kg/ha",0.0
same,AMBEL herbicidal rating,"AMBEL Ragweed, Common [13]; rate 0.062 kg/ha",0.0
same,AMBEL herbicidal rating,"AMBEL Ragweed, Common [13]; rate 0.125 kg/ha",9.0
same,Postemergence herbicidal rating CHEAL,[14]; 0.008 kg/ha,0.0
same,Postemergence herbicidal rating CHEAL,[14]; 0.016 kg/ha,0.0
same,Postemergence herbicidal rating CHEAL,[14]; 0.032 kg/ha,2.0
same,Postemergence herbicidal rating CHEAL,[14]; 0.062 kg/ha,3.0
same,SETVI herbicidal rating,"SETVI Foxtail, Green [15]; rate 0.016 kg/ha",0.0
same,SETVI herbicidal rating,"SETVI Foxtail, Green [15]; rate 0.032 kg/ha",0.0
same,SETVI herbicidal rating,"SETVI Foxtail, Green [15]; rate 0.062 kg/ha",0.0
same,SETVI herbicidal rating,"SETVI Foxtail, Green [15]; rate 0.125 kg/ha",9.0
same,Postemergence herbicidal rating GALAP,GALAP Galium [16]; 0.008 kg/ha,0.0
same,Postemergence herbicidal rating GALAP,GALAP Galium [16]; 0.016 kg/ha,0.0
same,Postemergence herbicidal rating GALAP,GALAP Galium [16]; 0.032 kg/ha,3.0
same,Postemergence herbicidal rating GALAP,GALAP Galium [16]; 0.062 kg/ha,4.0
same,CHEAL herbicidal rating,[17]; rate 0.016 kg/ha,9.0
same,CHEAL herbicidal rating,[17]; rate 0.032 kg/ha,9.0
same,CHEAL herbicidal rating,[17]; rate 0.062 kg/ha,9.0
same,CHEAL herbicidal rating,[17]; rate 0.125 kg/ha,9.0
same,TRZAWR herbicidal rating,[18]; rate 0.016 kg/ha,0.0
same,TRZAWR herbicidal rating,[18]; rate 0.032 kg/ha,0.0
same,TRZAWR herbicidal rating,[18]; rate 0.062 kg/ha,0.0
same,TRZAWR herbicidal rating,[18]; rate 0.125 kg/ha,0.0
same,GLXMAW herbicidal rating,"GLXMAW Soybean, Williams [19]; rate 0.016 kg/ha",0.0
same,GLXMAW herbicidal rating,"GLXMAW Soybean, Williams [19]; rate 0.032 kg/ha",0.0
same,GLXMAW herbicidal rating,"GLXMAW Soybean, Williams [19]; rate 0.062 kg/ha",0.0
same,GLXMAW herbicidal rating,"GLXMAW Soybean, Williams [19]; rate 0.125 kg/ha",0.0
same,ECHCG herbicidal rating,ECHOG Barnyardgrass [20]; rate 0.016 kg/ha,0.0
same,ECHCG herbicidal rating,ECHOG Barnyardgrass [20]; rate 0.032 kg/ha,0.0
same,ECHCG herbicidal rating,ECHOG Barnyardgrass [20]; rate 0.062 kg/ha,0.0
same,ECHCG herbicidal rating,ECHOG Barnyardgrass [20]; rate 0.125 kg/ha,0.0
same,ORYSAT herbicidal rating,"ORYSAT Rice, Tebonnet [21]; rate 0.016 kg/ha",0.0
same,ORYSAT herbicidal rating,"ORYSAT Rice, Tebonnet [21]; rate 0.032 kg/ha",0.0
same,ORYSAT herbicidal rating,"ORYSAT Rice, Tebonnet [21]; rate 0.062 kg/ha",0.0
same,ORYSAT herbicidal rating,"ORYSAT Rice, Tebonnet [21]; rate 0.125 kg/ha",0.0
same,Postemergence herbicidal rating ZEAMX,"ZEAMX Corn, Field [22]; 0.008 kg/ha",7.5
same,Postemergence herbicidal rating ZEAMX,"ZEAMX Corn, Field [22]; 0.016 kg/ha",8.0
same,Postemergence herbicidal rating ZEAMX,"ZEAMX Corn, Field [22]; 0.032 kg/ha",8.0
same,Postemergence herbicidal rating ZEAMX,"ZEAMX Corn, Field [22]; 0.062 kg/ha",8.0
same,ABUTH herbicidal rating,ABUTH Velvetleaf [23]; rate 0.016 kg/ha,0.0
same,ABUTH herbicidal rating,ABUTH Velvetleaf [23]; rate 0.032 kg/ha,0.0
same,ABUTH herbicidal rating,ABUTH Velvetleaf [23]; rate 0.062 kg/ha,2.0
same,ABUTH herbicidal rating,ABUTH Velvetleaf [23]; rate 0.125 kg/ha,9.0
same,Postemergence herbicidal rating CASOB,CASOB Sicklepod [24]; 0.008 kg/ha,0.0
same,Postemergence herbicidal rating CASOB,CASOB Sicklepod [24]; 0.016 kg/ha,0.0
same,Postemergence herbicidal rating CASOB,CASOB Sicklepod [24]; 0.032 kg/ha,0.0
same,Postemergence herbicidal rating CASOB,CASOB Sicklepod [24]; 0.062 kg/ha,1.0
